Values after ≈ are worked out from the molar mass of the structure shown.
What was measured:
Kallikrein-7 = Kallikrein-7 (Homo sapiens, UniProt P49862); test: Inhibition of recombinant C-terminal 10His-tagged human KLK7 (Glu23 to His252 residues) expressed in mouse NS0 cells using 5-FAM-E-A-L-Y-L-V-S-G-C as substrate after 40 mins by fluorescence intensity assay
Kallikrein-8 = target: T1, Kallikrein-8 (Homo sapiens, UniProt O60259); test: Inhibition of recombinant C-terminal 10-His tagged human KLK8 (Gln29 to Gly260 residues) expressed in mouse NS0 cells using BOC-VPR-AMC as substrate after 40 mins by fluorescence intensity assay
T1 sequence (O60259 whole entry): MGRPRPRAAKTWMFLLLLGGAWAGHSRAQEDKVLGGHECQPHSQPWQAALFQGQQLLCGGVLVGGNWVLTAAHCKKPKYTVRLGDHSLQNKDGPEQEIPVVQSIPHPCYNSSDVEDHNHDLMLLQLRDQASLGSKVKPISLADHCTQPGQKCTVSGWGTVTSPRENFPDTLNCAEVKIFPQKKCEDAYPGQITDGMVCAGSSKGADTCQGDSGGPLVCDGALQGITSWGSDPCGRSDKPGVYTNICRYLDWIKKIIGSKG

[1] = target: T2, Suppressor of tumorigenicity 14 protein (Homo sapiens, UniProt Q9Y5Y6); test: Inhibition of recombinant human N-terminal met-His6-tagged matriptase catalytic domain (Gly596 to Val855 residues) expressed in Escherichia coli using Boc-QAR-AMC as substrate after 40 mins by fluorescence intensity assay
T2 sequence (Q9Y5Y6 whole entry): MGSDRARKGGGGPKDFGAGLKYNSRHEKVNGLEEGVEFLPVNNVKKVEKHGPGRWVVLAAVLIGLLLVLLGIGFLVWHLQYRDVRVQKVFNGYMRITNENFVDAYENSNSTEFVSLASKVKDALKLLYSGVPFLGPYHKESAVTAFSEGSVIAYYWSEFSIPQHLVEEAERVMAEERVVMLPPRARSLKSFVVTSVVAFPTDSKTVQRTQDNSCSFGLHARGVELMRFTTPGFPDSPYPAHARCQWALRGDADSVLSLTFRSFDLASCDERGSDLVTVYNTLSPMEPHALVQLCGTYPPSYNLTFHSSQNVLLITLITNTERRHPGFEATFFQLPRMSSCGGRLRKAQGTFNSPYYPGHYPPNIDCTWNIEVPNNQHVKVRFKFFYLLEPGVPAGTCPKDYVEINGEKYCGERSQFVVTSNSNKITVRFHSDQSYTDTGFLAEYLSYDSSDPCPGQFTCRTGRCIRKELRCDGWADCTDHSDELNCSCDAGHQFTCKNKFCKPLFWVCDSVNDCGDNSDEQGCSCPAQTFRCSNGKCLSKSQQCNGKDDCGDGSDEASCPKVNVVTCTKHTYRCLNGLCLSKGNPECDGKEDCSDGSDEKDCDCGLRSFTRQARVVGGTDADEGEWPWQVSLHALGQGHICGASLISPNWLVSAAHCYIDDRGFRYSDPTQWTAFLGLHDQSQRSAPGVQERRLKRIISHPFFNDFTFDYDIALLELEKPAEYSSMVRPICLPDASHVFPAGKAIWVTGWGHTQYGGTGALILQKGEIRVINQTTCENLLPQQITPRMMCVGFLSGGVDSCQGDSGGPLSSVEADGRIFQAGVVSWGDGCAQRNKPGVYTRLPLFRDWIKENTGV

Homo sapiens [2] = species on record: Homo sapiens; test: Selectivity index, ratio of compound effect for inhibition of recombinant C-terminal 10-His tagged human KLK7 (Glu23 to His252 residues) expressed in mouse NS0 cells to compound effect for inhibition of recombinant 6His-Q-FLAG tagged human KLK5 expressed in baculovirus infected insect Sf9 cells
Homo sapiens [3] = species on record: Homo sapiens; test: Selectivity index, ratio of compound effect for inhibition of recombinant C-terminal 10-His tagged human thrombin (Met1 to Glu622 residues) expressed in mouse NS0 cells to compound effect for inhibition of recombinant 6His-Q-FLAG tagged human KLK5 expressed in baculovirus infected insect Sf9 cells
[4] = Solubility of the compound in water at 24 hrs; format: physicochemical
[5] = Half life in pH 4 to 8 buffer at 0.05 mg/ml over 24 hrs; format: physicochemical

Sequence of Kallikrein-7 (P49862 whole entry): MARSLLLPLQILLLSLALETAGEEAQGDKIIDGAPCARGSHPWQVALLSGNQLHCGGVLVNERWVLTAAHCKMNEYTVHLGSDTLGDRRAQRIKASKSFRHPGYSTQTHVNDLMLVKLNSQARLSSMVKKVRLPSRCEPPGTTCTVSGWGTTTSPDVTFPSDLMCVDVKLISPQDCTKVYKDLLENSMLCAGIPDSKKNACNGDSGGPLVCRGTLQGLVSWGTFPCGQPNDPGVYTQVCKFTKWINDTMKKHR

With N=C(N)c1ccc(NCc2nc(-c3ccccc3)c[nH]2)cc1OCc1cccnc1 as the molecule, how does the IC50 (Kallikrein-7) read?
Its IC50 is over 100 µM.

What about the IC50 (Kallikrein-8) of the same molecule?
The IC50 was 0.794 µM.

And the IC50 [1]?
Its IC50 is 25.1 µM.

What about the Selectivity Index (Homo sapiens [2]) of the same molecule?
The Selectivity Index was over 100.

And the Selectivity Index (Homo sapiens [3])?
The Selectivity Index was over 100.

What about the solubility at 24 h [4] of the same molecule?
Its solubility at 24 h is 1000 µg/mL (≈ 2510 µM).

What about the half-life at 0.05 mg/ml [5] of the same molecule?
Its half-life at 0.05 mg/ml is over 41.7 days.

From ChEMBL document CHEMBL4387717, “Structure guided drug design to develop kallikrein 5 inhibitors to treat Netherton syndrome” (Bioorg Med Chem Lett, 2019)
